Laboratory results: PMC5594493, “Antiproliferative factor (APF) binds specifically to sites within the cytoskeleton-associated protein 4 (CKAP4) extracellular domain” (BMC Biochemistry, 2017)
Where “and” joins values, the source holds several entries; their conditions need not be identical. Equal entries are not always repeated. Entries after “also recorded” stand apart in the source; their conditions may differ.

Experiments:
bladder carcinoma cells = conditions: in vitro; background statement, no reference given; read-out: IC50, growth inhibition; cited from earlier work
Excerpt: (§1) The effects that APF has on cells are remarkable and unique among the reported ligands for CKAP4.

[1] = tested on: normal bladder epithelial cells; conditions: in vitro; background statement, no reference given; read-out: IC50, growth inhibition; cited from earlier work
Excerpt: as §1

HeLa cells = conditions: in vitro; background statement, no reference given; read-out: IC50, growth inhibition; cited from earlier work
Excerpt: as §1

[2] = tested on: T24 bladder carcinoma cells; experiment: XTT cell proliferation assay, T24; format: cell-based; conditions: 20 nM, 96 h, serum-free, relative to vehicle/control, at least four independent times, P < 0.0001 vs control, as-APF vs APF P = 0.0103 (unpaired t-test, Welch's correction)
Protocol: T24 bladder carcinoma cells (ATCC #HTB-4; Manassas, VA) were maintained in HyClone-formulated McCoy’s 5A modified media (Catalog #SH30525.01) supplemented with 10% fetal bovine serum (FBS) (Atlanta Biologicals, Flowery Branch, GA), 100 U/ml penicillin, and 100 μg/ml streptomycin (Invitrogen, Carlsbad, CA). Cell proliferation was measured using the XTT Cell Proliferation Assay Kit (ATCC). T24 cells were seeded at 1 × 10^3–4 × 10^3 per well in a 48-well plate in 300 μl/well McCoy’s supplemented medium. Cells were serum-starved for 24 h and then treated with either 20 nM APF, 20 nM as-APF, or 25 μM H2O2 (antiproliferative control) diluted in serum-free McCoy’s medium. Cells were incubated at 37 °C in a 5% CO2 atmosphere for an additional 96 h, after which 150 μl of activated–XTT solution was added to each well followed by an additional 3 h incubation. Absorbance was then measured at 475 nm and 660 nm using an M5 microplate reader (Molecular Devices, Sunnyvale, CA), and the specific absorbance was calculated. P values were assigned using unpaired t-test with Welch’s correction. The assay was repeated four independent times.

CKAP4 = experiment: SPR binding to CKAP4 recombinant proteins (overall statements); conditions: comparison of as-APF, APF and control peptide
Protocol: (§2) All SPR experiments were performed on a Biacore X-100 instrument (GE Healthcare) with the chip surface at 25 °C using PBS containing 0.01% Tween-20 as running buffer. CKAP4 recombinant proteins were immobilized individually either by Ni^2+/nitrilotriacetic acid (NTA) chelation on Sensor Chip NTA or by amine-coupling on Sensor Chip CM5, on the Fc2 channel. For amine-coupling, the sensor surface on both flow cells was activated for 7 min with a 1:1 mixture of 0.1 M EDC (1-ethyl-3-(3-dimethylaminopropyl) carbodiimide hydrochloride) and 0.1 M NHS (N-hydroxysuccinimide) at a flow rate of 5 μl/min. Immobilization of CKAP4 proteins (on Fc2) was performed in 10 mM sodium acetate buffer, at either pH 4.5, 5.0, or 5.5 based on preliminary pH scouting runs, for optimal binding. Unreacted NHS groups were quenched with a 7 min injection of 1 M ethanolamine pH 8.5. The Fc1 channel was treated similarly but without CKAP4 and served as a reference. Upon stabilization of the baseline signal, multi-cycle kinetics assays were performed with injections of as-APF as analyte at various concentrations (2.5–40 μM) in running buffer at 30 μl/min for 2 min, immediately followed by a 3 min dissociation phase. […] The data were analyzed using Biacore Evaluation software V2.0. […]

cell proliferation = conditions: cited from earlier work
Protocol: Cells were treated with 20 nM APF or as-APF for 96 h and the rate of cell growth was measured using the XTT proliferation assay. […] The rate of growth of T24 cells was reduced by 47% with APF and by 60% with as-APF, relative to cells treated with vehicle alone; moreover, the difference in the antiproliferative effect of as-APF and APF was de ...

CKAP4_127–602 = target: T1, CKAP4_127–602 (Homo sapiens, UniProt Q07065); experiment: SPR, CKAP4_127–602 as immobilized ligand; format: binding; conditions: CKAP4_127–602 immobilized on NTA chip
T1 construct: encompassing only the extracellular domain (Aa 127–602) tagged at the C-terminus with a His-tag (CKAP4_127–602); His-tag (C); made in house; host or cells: E. coli BL21(DE3)pLysS
T1 sequence (Q07065 127-602): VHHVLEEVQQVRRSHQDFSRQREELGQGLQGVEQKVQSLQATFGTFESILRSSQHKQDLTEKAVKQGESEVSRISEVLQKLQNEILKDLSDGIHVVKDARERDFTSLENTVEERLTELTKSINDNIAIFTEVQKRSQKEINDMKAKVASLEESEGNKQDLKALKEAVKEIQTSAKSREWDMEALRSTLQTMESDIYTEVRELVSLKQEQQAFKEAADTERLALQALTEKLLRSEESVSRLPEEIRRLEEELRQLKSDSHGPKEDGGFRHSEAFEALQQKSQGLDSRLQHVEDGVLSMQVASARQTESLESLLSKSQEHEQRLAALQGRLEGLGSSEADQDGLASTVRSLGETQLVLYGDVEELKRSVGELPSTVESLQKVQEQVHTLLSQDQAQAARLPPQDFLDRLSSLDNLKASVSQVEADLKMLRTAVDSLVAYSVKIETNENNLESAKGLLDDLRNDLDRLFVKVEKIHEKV
Protocol: as §2

CKAP4_106–602 = experiment: SPR, CKAP4_106–602 as immobilized ligand; format: binding; conditions: CKAP4_106–602 immobilized on NTA chip
Protocol: as §2

- binding (CKAP4_127–602): did not bind robustly
Substance: Neu5Acα2 − 3Galβ1 − 3GalNAcα-O-TVPAAVVVA [APF]
- IC50 (bladder carcinoma cells): ~1 nM
- IC50 [1]: ~1 nM
- IC50 (HeLa cells): ~1 nM
- reduction of T24 cell proliferation [2]: 47% and 47.08 ± 12.88%
- binding to CKAP4 (in words) (CKAP4): bound to CKAP4 with high specificity compared to control APF peptide
- relative antiproliferative effect of as-APF and APF (cell proliferation; ref [2]): more or less equipotent
- IC50 (cell proliferation; ref [3], read-out: IC50, inhibition of proliferation): ~1 nM
- binding (CKAP4_106–602): did not bind robustly; also recorded: did not generate sufficient binding
